Like-named read-outs stand apart in the source and are kept apart here.

The target of one data set is E. coli TS (Escherichia coli, UniProt P0A884). Nature of the data set: Thymidylate synthase inhibition, enzymatic assay (Michaelis-Menten kinetics) on tether-free analogs. It is filed as biochemical. An excerpt: TS is an ideal validating target for several reasons. […] Second, a simple colorimetric assay exists for determining whether a potential ligand binds to TS. This assay depends on the rate of conversion of 5,10-CH2—H4folate to H2folate in the presence of dUMP. A second assay for binding is also spectrophotometric and relies on competition with pyridoxal-5′-phosphate (“PLP”), which forms a complex with TS with a unique spectral signature.
The TS chosen for the purposes of illustration is the E. coli TS. […] The E. coli TS includes four other cysteines but these are not conserved among other TS enzymes and are buried and thus not accessible. However, if one or more of these cysteines were reactive toward disulfides, then mutant versions of these enzymes can be used where these cysteines are mutated to another amino acid such as alanine.
In one illustrative example, the tethering experiment is performed in the presence of a known substrate. […] In contrast, a ligand candidate that lacks an inherent binding affinity or cysteamine would be easily displaced by the substrate. Another illustrative example is traditional enzymatic assays on the tether-free analog. For example, the affinity of the [drawing 14] R^c portion of the ligand fragment was determined using Michaelis-Mention kinetics.
The inhibition constants of the untethered versions of the selected ligand candidates were determined.

For data set [1], the target named is T1, caspase-3 (Homo sapiens, UniProt P42574).
T1 sequence (P42574 29-175 limits assumed): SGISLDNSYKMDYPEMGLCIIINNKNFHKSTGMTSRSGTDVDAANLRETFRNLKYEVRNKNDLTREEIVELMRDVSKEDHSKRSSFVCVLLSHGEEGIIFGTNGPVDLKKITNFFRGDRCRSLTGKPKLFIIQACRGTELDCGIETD
T1 sequence (P42574 176-277 limits assumed): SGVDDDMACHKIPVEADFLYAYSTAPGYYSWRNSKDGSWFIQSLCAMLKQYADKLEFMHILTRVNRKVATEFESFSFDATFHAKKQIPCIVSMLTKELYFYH
Nature of the data set: Modification of caspase-3 with extender (mass-spectroscopy). The class given is binding. The following applies: ambient temperature, 3.5 hours. From the text: (§1) This example describes the modification of caspase-3 with extender 13. Caspase-3 was cloned, overexpressed, and purified using standard techniques. […] The protein was concentrated in a Ultrafree 5 MWCO unit and the buffer exchanged to 0.1 M TES pH 7.5 using a Nap-5 column.

Data set [2] deals with T1, caspase-3. Nature of the data set: Caspase-3 inhibition (Ki). The following applies: for change of binding affinity relative to compound 18: removal of hydroxyl group / hydroxyl and acid moiety. It is filed as biochemical.
Data set [3] is classed as physicochemical. The procedure: The thiirane (17 mg, 0.047 mmol) was dissolved in dry DCM (5 ml), chilled in an ice-water bath, and treated with 5 ml trifluoroacetic acid. The reaction was allowed to proceed on ice for 40 minutes at which point it was evaporated to dryness and purified using reverse phase HPLC to yield compound 40 as a white solid (1.8 mg, 0.0058 mmol, 13%, ES (+) MS m/z=332 (M+Na)). […] It is generally preferred that the conjugation reaction of this extender to the active site thiol of caspases is performed for only 2–5 minutes at pH 6 and at low stoichiometries with respect to enzyme (1–3 equivalents)

Data set [4] concerns the target T2, target-extender complex 13′ (caspase-3 modified with extender 13) (Homo sapiens, UniProt P42574).
T2 construct: made in house
T2 sequence (P42574 29-175): T1 sequence (P42574 29-175 limits assumed)
T2 sequence (P42574 176-277): T1 sequence (P42574 176-277 limits assumed)
Nature of the data set: Tethering with extender, target-extender complex 13′. To be noted: library of about 10,000 ligand candidates. The class given is binding.
Description: (§2) Target-extender complexes 13′ and 14′ were each used in the tethering method against a library of about 10,000 ligand candidates. An illustrative example of a selected ligand-candidate using target-extender complex 13′ is [drawing 39]
as §1

The target of data set [5] is T3, target-extender complex 14′ (caspase-3 modified with extender 14) (Homo sapiens, UniProt P42574).
T3 construct: made in house
T3 sequence (P42574 29-175): T1 sequence (P42574 29-175 limits assumed)
T3 sequence (P42574 176-277): T1 sequence (P42574 176-277 limits assumed)
The data set is described as follows: Tethering with extender, target-extender complex 14′. The following applies: library of about 10,000 ligand candidates. It is filed as binding.
Description: as §2

Where [6] appears, read: untethered versions of selected ligand candidates, Example 6.
Setting [7] is: Table 2, glutamate-grafted N-tosyl-proline derivatives.

E. coli TS, sequence (P0A884 whole entry): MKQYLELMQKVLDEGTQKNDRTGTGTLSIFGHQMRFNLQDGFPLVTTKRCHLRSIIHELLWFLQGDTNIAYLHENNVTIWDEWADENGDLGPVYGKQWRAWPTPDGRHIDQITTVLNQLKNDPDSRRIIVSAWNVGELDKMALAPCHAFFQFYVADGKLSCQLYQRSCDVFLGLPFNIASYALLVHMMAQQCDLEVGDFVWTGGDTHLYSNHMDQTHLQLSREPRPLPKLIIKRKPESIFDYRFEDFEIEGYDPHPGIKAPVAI

Broadly, the Ki is the dissociation constant of the complex between target and ligand, obtained from inhibition or displacement. A high value points to a looser hold on the target. For the compound `Cc1ccc(S(=O)(=O)N2CCC[C@@H]2C(=O)O)cc1` [compound 1, N-tosyl-D-proline], the mode of inhibition result at E. coli TS (competed with the natural substrate dUMP) is “weak but competitive inhibitor”. At E. coli TS (free acid, Michaelis-Menten kinetics), this compound had a Ki of 1100 ± 250 µM.
`O=C(O)COc1ccc(/C=N/OCCCO/N=C/c2ccc(S(=O)(=O)N3CCCC3C(=O)O)cc2)cc1` (stereo not shown) [compound 2] showed an inhibition constant (Ki) at E. coli TS (setting [6]) of approximately 55 µM.
Consider `O=C(O)COc1ccc(/C=N\OCCCCCCO/N=C/c2ccc(S(=O)(=O)N3CCCC3C(=O)O)cc2)cc1` (stereo not shown) [compound 3], for which the inhibitory constant (Ki) on E. coli TS (setting [6]) was approximately 40 µM.
`O=C(O)C[C@H](NC(=O)c1ccc(S(=O)(=O)N2CCCC2C(=O)O)cc1)C(=O)O` (stereo partly shown) [compound 6] came in with a Ki on E. coli TS (setting [7]) of 242 ± 3 µM.
`O=C(O)CCC[C@H](NC(=O)c1ccc(S(=O)(=O)N2CCCC2C(=O)O)cc1)C(=O)O` (stereo partly shown) [compound 7]: the affinity on E. coli TS (setting [7]) corresponds to a Ki of 23 ± 6 µM.
`O=C(O)CCCC[C@H](NC(=O)c1ccc(S(=O)(=O)N2CCCC2C(=O)O)cc1)C(=O)O` (stereo partly shown) [compound 8] yielded a Ki on E. coli TS (setting [7]) of 32 ± 2 µM.
Still for that read-out and setting: for `O=C(O)CCCCC[C@H](NC(=O)c1ccc(S(=O)(=O)N2CCCC2C(=O)O)cc1)C(=O)O` (stereo partly shown) [compound 9] the value was 14 ± 6 µM; for `NC(=O)[C@H](CCC(=O)O)NC(=O)c1ccc(S(=O)(=O)N2CCCC2C(=O)O)cc1` (stereo partly shown) [compound 10], 378 ± 69 µM; for `NC(=O)CC[C@H](NC(=O)c1ccc(S(=O)(=O)N2CCCC2C(=O)O)cc1)C(=O)O` (stereo partly shown) [compound 11], 61 ± 14 µM.
Same read-out and setting: in the case of `O=C(O)CCCNC(=O)c1ccc(S(=O)(=O)N2CCCC2C(=O)O)cc1` (stereo not shown) [compound 12] it was 246 ± 46 µM.
With `CC(=O)SCC(=O)N[C@@H](CC(=O)O)C(=O)COC(=O)c1c(Cl)cccc1Cl` [compound 13, 2,6-Dichloro-benzoic acid 3-(2-acetylsulfanyl-acetylamino)-4-carboxy-2-oxo-butyl ester], the “modification of caspase 3 large subunit” value on caspase-3 [1] is “complete modification”.
In the case of `O=C[C@H](CC(=O)O)NC(=O)CCCCCNS(=O)(=O)c1cccc(C(=O)O)c1` [compound 19], the Ki at caspase-3 [2] (Table 4) came to 15.3 µM. The “change of binding affinity relative to compound 18” value at caspase-3 [2] was “reduced the affinity by a factor of five”.
`O=C[C@H](CC(=O)O)NC(=O)CCCCCNS(=O)(=O)c1ccccc1` [compound 20] registered a Ki on caspase-3 [2] (Table 4) of more than 100 µM. Also, the “change of binding affinity relative to compound 18” value on caspase-3 [2] is reported as “ablated binding affinity entirely”.
Turning to `O=C[C@H](CC(=O)O)NC(=O)c1ccc(CNS(=O)(=O)c2ccc(O)c(C(=O)O)c2)cc1` [compound 21], on caspase-3 [2], the Ki was approximately 0.16 µM and the “Ki better than compound 18” value is “more than 10 fold”. The compound also had a Ki at caspase-3 [2] (Table 4) of 0.16 µM. Further, the “improvement of binding by addition of the salicylate sulfonamide” value at caspase-3 [2] (versus salicylate sulfonamide-less fragment) is recorded as “about 200 fold”.
The compound `CS(=O)(=O)c1ccc(C(=O)NCCCS(=O)(=O)Cc2cccc(S(=O)(=O)N[C@H](C=O)CC(=O)O)c2)s1` [compound 22] displayed a Ki at caspase-3 [2] of 0.33 µM.
As to `O=C(O)C[C@H](NC(=O)OCc1ccccc1)C(=O)C1CS1` (stereo partly shown) [compound 40], in data set [3], the “stability as solution in methanol” value is “stable for months” and the “stability in DMSO” value is reported as “not stable”.
As to `CC(=O)N[C@@H](CCC(=O)O)C(=O)N[C@H](C(=O)N[C@H](C=O)CC(=O)O)C(C)C` [compound I, reference compound], at caspase-3 [2], affinity was put at a Ki of 0.051 µM.
In the case of `CC(C)[C@H](NC(=O)[C@H](CCC(=O)O)NS(=O)(=O)c1ccc(O)c(C(=O)O)c1)C(=O)N[C@H](C=O)CC(=O)O` [compound II], at caspase-3 [2] (addition of salicylate sulfonamide moiety to compound I), the “decrease in binding affinity versus compound I” value is approximately 300 fold.
With `NCCSSCCNS(=O)(=O)c1ccc(O)c(C(=O)O)c1` [ligand candidate 15], the selection in tethering result in data set [4] is listed as “selected”; in data set [5], “not selected”.
For the compound `CS(=O)(=O)c1ccc(C(=O)NCCSSCCN)s1` [ligand candidate 16], the selection in tethering entry is “not selected” in data set [4] and “selected” in data set [5].
With `NCCSSCCNS(=O)(=O)c1cccc(C(=O)O)c1` [ligand candidate 17], the selection in tethering entry in data set [4] and in data set [5] was “not selected” throughout.

Source of the values: patent publication US6998233B2, “Methods for ligand discovery” (Sunesis Pharmaceuticals, Inc., priority 1998, dated 2006).
